Test results: patent US10550107B2, “Process for the preparation of N-[4-[(3-chloro-4-fluoro phenyl) amino]-7-[[(3s-tetrahydro-3-furanyl]oxy]-6-quinazolinyl]-4-(dimethyl amino)-(2E)-2-butenamide (2Z)-2-butenedioate (1:2) and its polymorphs thereof” (MSN LABORATORIES PRIVATE LIMITED, priority 2015, dated 2020)

Assay: Polymorphic stability of crystalline Form-R
Type: physicochemical
Details: at various conditions (not specified)

Which “stability of the crystalline form / conversion to other crystalline forms” value does the source give for `CN(C)C/C=C/C(=O)Nc1cc2c(Nc3ccc(F)c(Cl)c3)ncnc2cc1O[C@H]1CCOC1.O=C(O)/C=C\C(=O)O` [Form-R, N-[4-[(3-chloro-4-fluorophenyl)amino]-7-[[(3S)-tetrahydro-3-furanyl]oxy]-6-quinazolinyl]-4-(dimethylamino)-(2E)-2-butenamide (2Z)-2-butenedioate (1:2)] here?
The value was “stable at various conditions and does not convert to any of the other crystalline forms”.
